According to a melting point compilation (Tetko et al.; mined from patent text by program, amines drawn as free bases though some values may be those of a salt):

Point of comparison: `Cc1ccc(-c2cncc(OC3SCC(O)C(O)C3O)c2)o1` (stereo not given), melting point 188 °C. Against it:
- O=C1CCC(c2ccc(CCN3CCN(c4ncccn4)CC3)cc2)N1 (stereo not given) — lower, 182 to 183 °C
- ClC1=NC(Cl)(Cl)N=C1Cl — lower, 85 to 87 °C
- CC(C)(C(=O)O)c1cn2nc(NCCCN3CCC(OC(c4ccccc4)c4ccccc4)CC3)ccc2n1 — higher, 205 to 206 °C
- CN(c1ccc(C(C(F)(F)Cl)C(F)(F)Cl)cc1)S(C)(=O)=O — lower, 140 to 142 °C
- CC1(C)CCCC2(C)CC12/C=C/C(=O)N1CCN(C(N)=O)CC1 (stereo not given) — lower, 166 to 168 °C
- CC(C)(C)OC(=O)CNC(=S)Nc1cccc(C#N)c1 — lower, 131 to 132 °C
- COC(=O)C1(CCCN2CCN(c3ccccc3)CC2)Oc2ccccc2OCC1O (stereo not given) — lower, 113 to 115 °C
- O=C1c2cccc3cc([N+](=O)[O-])cc(c23)C(=O)N1O — higher, 277 to 279 °C
- CC(C)c1nn(-c2ccc(C(F)(F)F)cn2)cc1CCCOc1cccc(CCC(=O)O)c1 — lower, 102 to 103 °C
- CC(=O)SCc1ccc([N+](=O)[O-])cc1[N+](=O)[O-] — lower, 78 to 79 °C
- COc1ccc(-c2cc(CN3CCN(C)CC3)c(=O)n(Cc3ccc(F)c(F)c3)n2)cc1F — lower, 135 to 136 °C
- Cc1c(C(F)(F)F)cnn(-c2cc(OCC3CCC3)c(Cl)cc2F)c1=O — lower, 85.3 °C
- COc1ccc(N(S(C)(=O)=O)S(C)(=O)=O)cc1CN1CCC(=O)C(C(c2ccccc2)c2ccccc2)C1 (stereo not given) — lower, 132 to 135 °C
- N#Cc1ccc(Nc2nc(N)nc(Cc3c(Cl)ccc4[nH]ccc34)n2)cc1 — higher, 267 to 268 °C
- O=C(Nc1ccc(Oc2ccnc(-n3ccnc3)n2)c2ccccc12)c1cc(F)cc(N2CCOCC2)c1 — lower, 153 to 154 °C
- NC(=S)NN=C(CCCCl)c1ccc(O)cc1 — lower, 126 to 129 °C
- COC(=O)c1ccc2c(=O)n(CC(C)C)c(CNC(=O)OC(C)(C)C)c(-c3ccc(C)cc3)c2c1 — higher, 193 to 194 °C
- COc1ccc2cc(C(C)C(=O)N3CSCC3C(=O)O)ccc2c1 (stereo not given) — lower, 165 to 168 °C
- COC(=O)C1=Cc2cc(Br)ccc2N(C)CCC1 — lower, 88 to 89 °C
- C=CCC(NC(C)=O)C(=O)NCc1ccccc1 (stereo not given) — lower, 118 to 120 °C
- CC(C)=CCCC(C)=CC=C1SC(=S)N(CC(=O)O)C1=O — lower, 95 to 98 °C
- N#Cc1nn(-c2c(Cl)cc(C(F)(F)F)cc2Cl)c(N)c1-c1cccc(N)c1 — lower, 187 °C
- Cc1ccc(Oc2ccc(C)cc2CC(=O)O)cc1 — lower, 101 to 104 °C
- Cc1ccc([N+](=O)[O-])cc1NC(N)=S — lower, 164 to 166 °C
- CCC(C)c1cc(C=O)c(O)c(S(C)(=O)=O)c1 (stereo not given) — lower, 68 to 70 °C
- CS(=O)(=O)OCCNc1ccc(Cl)cc1[N+](=O)[O-] — lower, 108 to 109 °C
- O=C1c2ccccc2-n2cnc(-c3noc(CCl)n3)c2[C@@H]2CCN12 — higher, 205 to 207 °C
- CC(=O)C(O)C1OC(n2cnc3c(NC4CCCc5ccccc54)ncnc32)C(O)C1O (stereo not given) — lower, 87 to 97 °C
- Cc1nnc(-c2ccc3occ(-c4ccc(S(C)=O)cc4)c3n2)o1 (stereo not given) — higher, 219 to 220 °C
- O=S(=O)(NC(CO)CO)c1ccc(Br)s1 — lower, 80 °C
- COc1ccc2c(CCC3CCN(C(=O)OC(C)(C)C)CC3)noc2c1 — lower, 95 to 96 °C
- CCOC(=O)c1c(C(F)(F)F)nc(C(F)(F)F)c(C(=O)O)c1OCC — lower, 115 to 117 °C
- CS(=O)(=O)c1ccc2ccn(C3CCN(CCc4ccc(F)cc4)CC3)c2c1 — lower, 133 to 135 °C
- CNC(=O)NC(CCSC)C(N)=O (racemic) — lower, 156 to 157 °C
- CCn1cc(CN(C(=O)C2CCCc3c(O)cccc32)c2ccc(OC)cc2)cn1 (stereo not given) — higher, 211 to 213 °C
- c1ccc(-c2nnc(-c3ccccn3)o2)cc1 — lower, 127 to 128 °C
- NCCn1nc2c3c(c(Cl)ccc31)C(=O)c1c(OCc3ccccc3)ccc(OCc3ccccc3)c1-2 — lower, 176 to 178 °C
- COc1c2c(c(C3CCCCC3)c3c4c(ccc13)OCO4)CNC2=O — higher, 244 to 246 °C
- CNc1nc(N)nc(-c2cc(Cl)ccc2Cl)n1 — higher, 205 to 206 °C
- CCOC(=O)C(=CNc1ccc(COC(C)=O)cc1I)C(=O)OCC — lower, 128 to 131 °C
- CCc1nn(-c2ccc(F)cc2)c2cc(C(=O)O)ccc12 — higher, 204 to 205 °C
- N#Cc1c(Br)c(Br)n(C#N)c1Br — higher, 195 to 198 °C
- CCCCc1cc2cn(C3CCCC3)c(=O)nc2o1 — lower, 130 to 131 °C
- c1ccc(COc2ccc3nc(-c4ccc(C56CC7CC(CC(C7)C5)C6)c(OCc5ccccc5)c4)[nH]c3c2)cc1 — higher, 203 °C
- Cc1c(=O)n(Cc2ccccc2)c(=O)n2cc(C(=O)NCc3ccccc3)sc12 — lower, 176 to 178 °C
- CC(C)C(=O)NC(=O)N1C(=O)Cc2cc(Cl)ccc21 — lower, 139 to 141 °C
- O=C1OC(O)c2ccc([N+](=O)[O-])cc21 (stereo not given) — lower, 157 to 160 °C
- COc1ccc(C2=NN(CCCO)C(=O)[C@H]3CCCC[C@@H]23)cc1OC (relative stereo) — lower, 94 to 97 °C
- CCc1ccc(Nc2nc3cc(NC(=O)c4cc(OC)c(OC)c(OC)c4)ccc3o2)cc1 — higher, > 250 °C
- CCOC(=O)NNc1nc2ccccc2n2cnc(C(=O)OCC)c12 — lower, 126 to 128 °C
- CCN(CC)C(=O)NCCOC(=O)c1cc(Oc2ccc(C(F)(F)F)cc2Cl)ccc1[N+](=O)[O-] — lower, 89 to 90 °C
- CC(C)[C@@H](C(=O)NCCCC(c1ccc(F)cc1)c1ccc(F)cc1)N(C)C1CCCCC1 — lower, 82 to 86 °C
- O=C(NCCCCN1CCC(c2ccc3c(c2)CCCC3)CC1)c1ccc(NC(=O)c2ccc(Cl)cc2)cc1 — higher, 285 °C
- CC1=NC(=NOC(=O)NC2CC2)SC1(C)C — lower, 86 to 89 °C
- COC(=O)c1cc([N+](=O)[O-])ccc1CS(N)(=O)=O — lower, 167 to 170 °C
- CC(=O)Nc1c(C(N)=O)n[nH]c1C(C)C — lower, 162 to 164 °C
- CN1C(=O)c2ccccc2OC1C(Cl)(Cl)Cl (stereo not given) — lower, 82 to 84 °C
- Oc1cccc(-c2csc(-c3cccnc3)n2)c1 — lower, 180 to 181 °C
- COC(=O)NC1(C)CN(C(=O)Nc2ccc(C(F)(F)F)cc2)N=C1c1ccc(Cl)cc1 (stereo not given) — lower, 179 to 181 °C
- COC(=O)c1cc(C(=O)N2CCC(CO)CC2)c2cc(Cc3ccc(F)cc3)cnc2c1O — lower, 161 to 162 °C
- O=S(CCCCCCOc1ccc(C2=C(c3ccccc3)CCCc3cc(O)ccc32)cc1)CCCC(F)(F)C(F)(F)F (stereo not given) — lower, 121 °C
- Cc1ccc(-n2nc(C(C)(C)C)cc2NC(=O)c2cccc3cc(Oc4cc(Cl)ncn4)ccc23)cc1 — lower, 163 to 164 °C
- Cc1cc(C(=O)N2CCOCC2)ncc1C(c1cc(F)ccc1F)S(=O)(=O)c1ccc(F)cc1 (stereo not given) — lower, 165 to 167 °C
- COc1cc(C(=O)c2ncc3c(C(=O)N(C)C)cccn23)ccc1[N+](=O)[O-] — lower, 176 °C
- O=C1c2ccccc2C(=O)N1OC1CCCC1 — lower, 81.2 to 82.5 °C
- Cn1c(C(F)(F)F)cc(C#N)c1-c1ccc2ccccc2c1 — lower, 134 °C
- O=C(O)c1cn(C2CN(C(c3ccccc3)c3ccccc3)C2)c2cc(F)c(F)cc2c1=O — higher, 245 to 247 °C
- Cc1ccc2c(c1)Oc1cscc1C(=O)N2 — higher, 209 to 216 °C
- Nc1cc(Cl)nc(S(=O)(=O)Cc2cccc(Br)c2)n1 — higher, 191 to 192 °C
